Legend:
[1] = test system: Staphylococcus epidermidis strain PCI1200; assay: Confocal microscopy binding of EGFP-tagged lysin to S. epidermidis; settings: 2.5 mg/ml; FIG. 1 G1-3
Procedure: (§1) To check the binding spectrum of the engineered lysin SmartNovaC, 2.5 mg/ml of SmartNovaC was applied against four C. acnes strains, Enterococcus faecalis strain OG1 RF, Staphylococcus epidermidis strain PCI1200 and Pseudomonas aeruginosa strain PA14. Since SmartNovaC was cloned in a plasmid that would co-express the EGFP tag, the fluorescent lysin can be visualized using confocal microscopy.

[2] = test system: Enterococcus faecalis strain OG1 RF; assay: Confocal microscopy binding of EGFP-tagged lysin to E. faecalis; settings: 2.5 mg/ml; FIG. 1 E1-3
Procedure: as §1

Cutibacterium acnes [3] = assay: Confocal microscopy binding of EGFP-tagged lysin to C. acnes; settings: 2.5 mg/ml; four C. acnes strains (6919, 11828, 11827, HC038-PAI); FIG. 1
Procedure: as §1
To further examine whether SmartNovaC is the only lysin that binds specifically to C. acnes, the binding of NovaC and another lysin DukeC2Rap that were synthesized with EGFP co-expressed were tested. DukeC2Rap lysin was obtained as CBD of Doucette lysin targeting Propionibacterium freudenreichii species, which is from the same genus as C. acnes. The nucleotide and amino acid sequences of the DukeC2Rap are provided below.
NovaC and DukeC2Rap at concentrations of 2.5 mg/ml and 1.3 mg/ml, respectively, were tested for binding against two C. acnes strains.

[4] = test system: Pseudomonas aeruginosa strain PA14; assay: Confocal microscopy binding of EGFP-tagged lysin to P. aeruginosa; settings: 2.5 mg/ml; FIG. 1 F1-3
Procedure: as §1

Cutibacterium acnes [5] = assay: Minimum Inhibitory Concentration of benzoyl peroxide on C. acnes; type: cell-based; settings: OTC product containing 10% BPO used; FIG. 4
Description: An OTC product containing 10% BPO was used in this experiment.
The advantage of SmartArrow is that it will deliver the active ingredients to where the bacteria reside. As a result, a much lower dosage of bioactive can be loaded in SmartArrow to achieve high killing of the bacteria compared to untargeted liposomes. As little as 0.002% BPO can achieve total killing of C. acnes (FIG. 4). Considering the BPO concentrations found in the retail market ranges from 2.5%-10%, which is ˜1000-fold higher than what is needed to kill the bacteria, it is not surprising to find most users of these retail products routinely suffer several side effects such as dry peeling skin. By using the SmartArrow approach, we can conservatively load 0.02% BPO into a liposome, which is 100× less than the retail products, to achieve total bacterial killing and reducing the side effects to a minimum.

## SmartNovaC (GSVNKLHHDVGVVQVQNGDLSKRVDALSWV)
[1]
  binding to S. epidermidis: could not bind
[2]
  binding to E. faecalis OG1RF: could not bind
Cutibacterium acnes [3]
  binding to C. acnes (green fluorescence): specific binding
[4]
  binding to P. aeruginosa PA14: could not bind

## O=C(OOC(=O)c1ccccc1)c1ccccc1 [BPO, benzoyl peroxide]
Cutibacterium acnes [5]
  BPO concentration achieving total killing of C. acnes (MIC): 0.002%

Source: US20250090461A1, “CELL-WALL BINDING PROTEIN SPECIFICALLY TARGETING CUTIBACTERIUM ACNES” (MASSACHUSETTS INSTITUTE OF TECHNOLOGY, priority 2022, published 2025)
